Ends that are not written are not given here.

This note sets out measurements from US20240165196A1, “Beta-Lactamase Inhibitors” (VIB VZW, priority 2021, published 2024).

The subject of test [1] is strain containing TEM-1. Kind of test: checkerboard assay (FICI), peptide and penicillin. The test is classed as cell-based, E. coli. Conditions: strain TEM-1. From the text:
(§1) FIGS. 4A-4K. […] IV—Intravenous, IP—Intraperitoneal, SC—Subcutaneously. The data shown is from a single experiment with 4 animals per group. […] (ns—non significant, #—P>0.05, *—P≤0.05, ***—P≤0.01, ****—P≤0.001). (FIG. 4G) FICI plot as in FIG. 2, for the E. coli strains indicated and the combination of penicillin and the TEM3.2 peptide. […] (FIG. 4J) Same as FIG. 4H for peptide BGAL. (FIG. 4K) Same as FIG. 4H for peptide P33.
(§2) As we wondered about the generality of our peptide design approach, we set out to design a peptide to inactivate a structurally unrelated beta-lactamase. To this end we turned to the Ambler class B beta-lactamase NDM-1 that confers resistance to many beta-lactam antibiotics, including carbapenems, and strains carrying this enzyme was soon dubbed ‘superbugs’ that are only partially sensitive to colistin and tigecycline^49. This enzyme was first isolated from a patient in 200850, by 2010 could be detected in clinical isolates throughout the UK and India^51 and by 2015 was detected in over 70 countries worldwide^52.
(§3) For the analysis of the synergy between the peptides with other antibiotics, a checkerboard assay was performed. Referring to the MICs of the selected peptides, checkerboard assay was designed to define their FICIs (Fractional Inhibitory Concentration Index) in combinations against different clinical isolates^62,63. Briefly, a total volume of 100 μL of Mueller-Hinton broth was distributed into each well of the 96-well plates. The first compound (peptide) of the combination was serially diluted vertically (128, 64, 32, 16, 8, 4, 2, 0 μg/mL) while the other drug (Beta-lactam or Kanamycin) was diluted horizontally in 96 well plate (from 3200 to 3 μg/mL). The total volume of each microtiter well was inoculated with 100 μL of MHB containing 1×10^6 CFU/mL bacteria. The plates were incubated at 37° C. for 24 h under aerobic conditions without shaking. Calculation of the FICI is used to analyze the results of the checkerboard assay by estimating the degree of synergistic effect. FICI is calculated as the sum of the individual fractional inhibitory concentrations (FICs) for each drug (where MIC A and MIC B denote the MIC of each drug alone, and MIC AA+B and MIC BA+B denote the concentrations of A and B in the drug combination). FICI=(MIC AA+B/MIC A)+(MIC BA+B/MIC B). With FICI≤0.5, the combination of antibiotics considered as a synergistic effect, 0.5<FICI≤1 indicates additivity, FICI>1 indicates indifference.

For test [2], the system named is strain containing NDM5b. Briefly: checkerboard assay (FICI), peptide and penicillin. The test is classed as cell-based, E. coli.
Source text: as §1, §2, §3

Test [3] has as its system strain containing NDM5a. Briefly: checkerboard assay (FICI), peptide and penicillin. The test is classed as cell-based, E. coli.
Source text: as §1, §2, §3

Test [4] has as its system E. coli TEM-104. Kind of test: checkerboard assay (FICI), peptide versus penicillin G. The test is classed as cell-based. Conditions: strain with TEM; FICI below 0.5 = synergy. The source says:
(§4) FIGS. 2A-2M. (FIG. 2A) TEM mutations and their effects on stability (total energy) as predicted by FoldX. […] Dashed line indicates a total energy difference of 0.5 kcal/mol, the FoldX cut-off above which mutations are considered to be destabilizing. (FIG. 2B) Barplot mapping mutations in (FIG. 2A) to the TEM sequence and indicating occurrence. […] The bar heights correspond to the number of times a mutation occurs across different TEM variants (right-hand y-axis). The color coding is identical to that in (FIG. 2A). Red line indicates the TANGO scores (indicated on the left-hand y-axis), with peaks corresponding to APRs. (FIG. 2C) Mapping of mutations in (FIG. 2A) and (FIG. 2B) to the TEM structure (pdb 1xpb). Protein surface is shown in gray, color coding of mutations is identical to (FIG. 2A) and (FIG. 2B). (FIGS. 2D, 2E, and 2F) Temperature-dependent evolution of the Right-Angle Light Scattering (RALS) intensity during a temperature ramp, similar as in FIG. 1F for key mutants of TEM1, namely TEM-10 (FIG. 2D), TEM-30 (FIG. 2E) and TEM-155 (FIG. 2F). Experiments were shown in triplicate, single repeat is shown. (FIG. 2G) Schematic representation of the structure of the peptides. APR—Aggregation Prone Region, R—Arginine. (FIG. 2H) Ribbon representation of the superposition of the crystal structures of TEM (green, pdb id 1bt5) and SHV (blue, pdb id 1shv). The catalytic site of the beta-lactamase activity is indicated and location of APR3 is shown in red. (FIG. 2I) TANGO aggregation score and alignment of APR3 in TEM and SHV. (FIG. 2J) Fractional Inhibitory Concentration Index determination of 5 peptides versus penicillin on E. coli TEM-104. […] FICI values below 0.5 indicate synergy. Values between 0.5 and 1.0 indicate additivity and values greater than 1 indicate indifference between the combined substances. (FIG. 2K) Same as J for E. coli SHV-11. (FIG. 2L) Same as J for a kanamycin resistant E. coli strain. (FIG. 2M) FICI values for the TEM3.2 peptide on a range of E. coli strains.
(§5) Moreover, the core sequence of peptide TEM3.0 also occurs in the structurally related SHV β-lactamase ([…]). Although the C-terminal extension residues H and N have been replaced with physicochemically similar R and Q, respectively (FIG. 2H). […] To quantify the synergy between these four peptides and penicillin G, we performed a so-called checkerboard assay, which allows to compare the activity of two test compounds co-incubated (here peptide and a beta-lactam antibiotic), to their individual activities in isolation. The result from the assay is quantified as the Fractional Inhibitory Concentration Index (FICI), and it is generally accepted that values below 0.5 indicate synergistic effects between the compounds. As a control, we generated a peptide using the same design, but based on a previously identified APR from the β-galactosidase enzyme (BGAL)^16 from E. coli (APR=SVIIWSL, peptide sequence=[…]) that has a MIC value>100 μg/mL on E. coli strain UZ_TEM104. We evaluated the synergy of the peptides with penicillin G in clinical E. coli isolates carrying the TEM ([…]) or SHV enzymes ([…]). […] As a further control, we also performed a checkerboard assay with an E. coli strain that was resistant to the aminoglycoside kanamycin and observed no synergy between this unrelated antibiotic and our peptides (FIG. 2L), in line with the notion that we are inhibiting a beta-lactamase but not the aminoglycoside degrading enzyme. […] The list of strains included some that harbored only TEM or SHV, but others contained additional Ambler Class A (CTX-M or […]) or Class B (VIM and NDM) beta-lactamases. […] In contrast, the presence of the NDM-type […], that does have a high affinity for Ampicillin and that is completely distinct in sequence and structure from TEM and SHV, seemed to completely prevent the effect of the peptide on the beta-lactam sensitivity of the strains in which it occurred (see also further). […]

The test system of test [5] is E. coli SHV-11. The description is as above. The test is classed as cell-based. Conditions: strain with SHV-11; FICI below 0.5 = synergy.
Source text: as §4, §5

On to RLAAALMLRRPRAQILNWIRR (NDM1-2), for which the figures for the “synergy with penicillin (FICI)” value in test [1], in test [2] and in test [3] were “not in a strain containing TEM-1”, “synergy” and “synergy”, respectively.
Take RSVIIWSLGRRPRSVIIWSLGRR [BGAL]: the “synergy with penicillin G (FICI)” value in test [4] and in test [5] was “no synergy” throughout. The “synergy with penicillin (FICI)” value in test [1], in test [2] and in test [3] was “neither showed synergy” throughout.
For the sequence RTAQILNWRRPRTAQILNWRR (NDM1-1), the “synergy with penicillin (FICI)” value in test [1] was “not in a strain containing TEM-1”; in test [2] it was “synergy”; in test [3], “synergy”.
